Peptide text beside a SMILES is read from it.
Experiments:
α9β1 = biological target: T1, α9β1 (Homo sapiens, UniProt P05556+Q13797); test: Adhesion of α9-SW480 overexpressing cells to VCAM-1; assay type: cell-based; conditions: n=6, Table S6, read-out: IC50 α9β1 (linear peptides)
T1 construct: generated by transfection with full-length α9 expression plasmid pcDNAIneoa9; expressed in transfected cells; host or cells: SW480 transfected with pcDNAIneoa9
Method: Table S6. TMLD- linear peptides inhibition of adhesion of integrin expressing cells to the respective immobilized ligands a a The cells were incubated for 30 min at 37 °C with the cells (1 x 105) in the 96 -well plate, previously covered with extracellular matrix ligand, in 100 µL of HBSS containing calcium and magnesium. After being washed with the same buffer, the adhered cells were lysed by Triton X-100, and the plate was read using Tecan spectrofluorimeter. The inhibitory dose 50% (IC 50) values represent ing mean ± standard deviatio ns (n=6) were calculated from dose response curves. bJurkat cells,VCAM -1; c α9-SW480 overexpressing cells, VCAM-1; d α1-K562 overexpressing cells, collagen IV ;e α2-K562 overexpressing cells, collagen I; f K562 wild type […]
(1 picture or pasted object on this page, not shown here)

[1] = biological target: T2, α4β1 (Jurkat lymphocytes-VCAM-1) (Homo sapiens, UniProt P05556+P13612); test: Adhesion of Jurkat lymphocytes to immobilized VCAM-1; assay type: cell-based; conditions: Jurkat cells, VCAM-1; n=6; Table S6; read-out: IC50 α4β1 (linear peptides)
T2 construct: host or cells: Jurkat (untreated or TNFα-treated)
Method: (§1) Cell adhesion assay was carried out as previously described[47] with minor modifications. The day before the experiment, each well was coated with VCAM-1 (3 mg/mL) immobilized on the 96-well plate in PBS by overnight incubation at 4 °C. Thereafter, nonspecific binding was blocked by incubating the wells with 1% (w/v) bovine serum albumin (BSA) in Hank’s Balanced Salt Solution (HBSS) containing 5 mM MgCl2 at room temperature for 1 h before use. The cells were labeled by incubation with 12.5 μM 5-chloromethylfluorescein diacetate (CMFDA) in HBSS without 1% BSA at 37 °C for 30 min. The labeled cells were then centrifuged at 1000 rpm and washed twice with HBSS containing 1% BSA to remove excess CMFDA. Labeled cells (about 1 × 10^5 cells/well) were plated on each well in the presence or absence of visabrons and incubated at 37 °C for 60 min. Unbound cells were removed by washing the wells three times with 1% (w/v) BSA in HBSS, and bound cells were lysed by the addition of 0.5% Triton X-100 (diluted in DDW). The fluorescence in each well was quantified with a SPECTRAFluor Plus plate reader (Tecan), at λex = 485 nm and λem = 530 nm. To determine the number of adhered cells from the fluorescence values, a standard curve was generated by serial dilution of known numbers of CMFDA-labeled cells. […]
(§2) Table S6. TMLD- linear peptides inhibition of adhesion of integrin expressing cells to the respective immobilized ligands a a The cells were incubated for 30 min at 37 °C with the cells (1 x 105) in the 96 -well plate, previously covered with extracellular matrix ligand, in 100 µL of HBSS containing calcium and magnesium. After being washed with the same buffer, the adhered cells were lysed by Triton X-100, and the plate was read using Tecan spectrofluorimeter. The inhibitory dose 50% (IC 50) values represent ing mean ± standard deviatio ns (n=6) were calculated from dose response curves. bJurkat cells,VCAM -1; c α9-SW480 overexpressing cells, VCAM-1; d α1-K562 overexpressing cells, collagen IV ;e α2-K562 overexpressing cells, collagen I; f K562 wild type

α5β1-fibronectin = biological target: T3, α5β1-fibronectin (Homo sapiens, UniProt P05556+P08648); test: Adhesion of wild-type K562 cells to immobilized fibronectin; assay type: cell-based; conditions: K562 wild type cells, fibronectin; n=6; Table S6; read-out: IC50 α5β1 (linear peptides)
T3 construct: host or cells: K562 wild type
Method: as §1, §2

α2β1-collagen I = biological target: T4, α2β1-collagen I (Homo sapiens, UniProt P05556+P17301); test: Adhesion of α2-K562 overexpressor cells to immobilized collagen I; assay type: cell-based; conditions: α2-K562 overexpressing cells, collagen I; n=6; Table S6; read-out: IC50 α2β1 (linear peptides)
T4 construct: expressed in transfected cells; host or cells: K562 transfected with α2 integrin (gift of Dr. M. Hemler)
T4 sequence (P17301 30-1181): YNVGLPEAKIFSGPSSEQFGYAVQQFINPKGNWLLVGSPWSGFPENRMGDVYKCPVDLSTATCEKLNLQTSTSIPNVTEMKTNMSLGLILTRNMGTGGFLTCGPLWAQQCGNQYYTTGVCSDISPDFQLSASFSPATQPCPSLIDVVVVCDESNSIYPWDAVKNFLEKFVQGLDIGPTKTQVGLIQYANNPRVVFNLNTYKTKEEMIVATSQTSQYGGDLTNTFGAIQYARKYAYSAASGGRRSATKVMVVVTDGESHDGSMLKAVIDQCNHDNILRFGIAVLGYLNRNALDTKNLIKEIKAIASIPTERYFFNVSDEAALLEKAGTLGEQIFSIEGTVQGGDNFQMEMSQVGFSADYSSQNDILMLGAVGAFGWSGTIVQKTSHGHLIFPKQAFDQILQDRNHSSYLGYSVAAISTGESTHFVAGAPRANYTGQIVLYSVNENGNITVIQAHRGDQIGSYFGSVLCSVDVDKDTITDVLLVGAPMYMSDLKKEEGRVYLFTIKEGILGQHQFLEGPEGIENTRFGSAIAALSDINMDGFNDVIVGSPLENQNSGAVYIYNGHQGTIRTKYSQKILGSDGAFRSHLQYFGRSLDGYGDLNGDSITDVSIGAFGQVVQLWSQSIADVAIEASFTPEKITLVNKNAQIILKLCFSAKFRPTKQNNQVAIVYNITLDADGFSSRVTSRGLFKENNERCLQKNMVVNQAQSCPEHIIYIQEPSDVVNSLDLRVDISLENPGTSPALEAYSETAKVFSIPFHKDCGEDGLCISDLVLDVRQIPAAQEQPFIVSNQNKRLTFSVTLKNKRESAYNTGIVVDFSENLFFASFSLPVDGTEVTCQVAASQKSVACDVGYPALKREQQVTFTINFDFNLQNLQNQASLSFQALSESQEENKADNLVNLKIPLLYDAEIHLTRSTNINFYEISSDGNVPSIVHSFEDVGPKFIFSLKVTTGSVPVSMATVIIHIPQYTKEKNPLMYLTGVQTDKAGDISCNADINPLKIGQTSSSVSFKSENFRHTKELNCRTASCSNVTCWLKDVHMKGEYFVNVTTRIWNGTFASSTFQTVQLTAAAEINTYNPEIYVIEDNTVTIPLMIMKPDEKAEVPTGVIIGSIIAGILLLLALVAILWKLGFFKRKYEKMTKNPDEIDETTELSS
T4 sequence (P05556 21-798): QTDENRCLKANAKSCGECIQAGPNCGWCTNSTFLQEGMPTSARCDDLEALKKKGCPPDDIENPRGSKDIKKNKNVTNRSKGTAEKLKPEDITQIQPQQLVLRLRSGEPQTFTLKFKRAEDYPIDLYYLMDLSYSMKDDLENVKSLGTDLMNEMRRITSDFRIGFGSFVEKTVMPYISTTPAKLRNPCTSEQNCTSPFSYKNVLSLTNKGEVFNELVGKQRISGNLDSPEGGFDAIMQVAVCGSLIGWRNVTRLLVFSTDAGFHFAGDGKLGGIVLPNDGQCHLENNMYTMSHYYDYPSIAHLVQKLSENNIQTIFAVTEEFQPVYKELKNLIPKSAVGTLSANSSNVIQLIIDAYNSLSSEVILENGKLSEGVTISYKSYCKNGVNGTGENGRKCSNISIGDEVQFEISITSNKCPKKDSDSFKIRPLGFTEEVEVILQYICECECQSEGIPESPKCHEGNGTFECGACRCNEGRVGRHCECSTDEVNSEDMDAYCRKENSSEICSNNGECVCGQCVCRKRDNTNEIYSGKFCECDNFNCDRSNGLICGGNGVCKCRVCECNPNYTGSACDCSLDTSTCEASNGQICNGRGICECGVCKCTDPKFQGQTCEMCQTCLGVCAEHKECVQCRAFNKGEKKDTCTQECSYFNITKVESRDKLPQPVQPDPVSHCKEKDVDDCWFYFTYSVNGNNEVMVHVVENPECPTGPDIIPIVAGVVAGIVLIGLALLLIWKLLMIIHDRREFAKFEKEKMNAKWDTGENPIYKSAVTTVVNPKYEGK
Method: as §1, §2

[2] = assay type: in vitro ADME, male Wistar rats; conditions: incubation in rat plasma, 37 °C
Method: Figure S7- Metabolic stability of linear (blue) and cyclic Visabrons in rat plasma (n=3) […]
(orange, green, red). The […]
amount of peptides is presented as a percentage of the sample at time 0.
Figure S8- A. Calibration curve of Visabron c(4-4) (prepared by spiking the standard working stock solution with 15 μl of the different concentration, 20 μl metoprolol (10 μg/mL) and 135 -μl blank rat plasma. B. Profile of plasma concentration of Visabron c(4-4) vs time in rats following i.v. bolus administr ation of 0.515 mg/kg; C. semi - logarithmic plot of plasma concentration of Visabron c(4-4) vs time (n = 4 , mean ± SD). […]
For peptide sequencing, the protein digest mixture was subjected to electrospray ionization MS/MS analysis using a QTrap mass spectrometer, equipped with a nanospray source. […] Quantitation of free cysteine residues and disulfide bonds was done as previously described4. […]

α1β1-collagen IV = biological target: T5, α1β1-collagen IV (Homo sapiens, UniProt P05556+P56199); test: Adhesion of α1-K562 overexpressor cells to immobilized collagen IV; assay type: cell-based; conditions: α1-K562 overexpressing cells, collagen IV; n=6; Table S6; read-out: IC50 α1β1 (linear peptides)
T5 construct: expressed in transfected cells; host or cells: K562 transfected with α1 integrin (gift of Dr. M. Hemler)
T5 sequence (P56199 29-1179): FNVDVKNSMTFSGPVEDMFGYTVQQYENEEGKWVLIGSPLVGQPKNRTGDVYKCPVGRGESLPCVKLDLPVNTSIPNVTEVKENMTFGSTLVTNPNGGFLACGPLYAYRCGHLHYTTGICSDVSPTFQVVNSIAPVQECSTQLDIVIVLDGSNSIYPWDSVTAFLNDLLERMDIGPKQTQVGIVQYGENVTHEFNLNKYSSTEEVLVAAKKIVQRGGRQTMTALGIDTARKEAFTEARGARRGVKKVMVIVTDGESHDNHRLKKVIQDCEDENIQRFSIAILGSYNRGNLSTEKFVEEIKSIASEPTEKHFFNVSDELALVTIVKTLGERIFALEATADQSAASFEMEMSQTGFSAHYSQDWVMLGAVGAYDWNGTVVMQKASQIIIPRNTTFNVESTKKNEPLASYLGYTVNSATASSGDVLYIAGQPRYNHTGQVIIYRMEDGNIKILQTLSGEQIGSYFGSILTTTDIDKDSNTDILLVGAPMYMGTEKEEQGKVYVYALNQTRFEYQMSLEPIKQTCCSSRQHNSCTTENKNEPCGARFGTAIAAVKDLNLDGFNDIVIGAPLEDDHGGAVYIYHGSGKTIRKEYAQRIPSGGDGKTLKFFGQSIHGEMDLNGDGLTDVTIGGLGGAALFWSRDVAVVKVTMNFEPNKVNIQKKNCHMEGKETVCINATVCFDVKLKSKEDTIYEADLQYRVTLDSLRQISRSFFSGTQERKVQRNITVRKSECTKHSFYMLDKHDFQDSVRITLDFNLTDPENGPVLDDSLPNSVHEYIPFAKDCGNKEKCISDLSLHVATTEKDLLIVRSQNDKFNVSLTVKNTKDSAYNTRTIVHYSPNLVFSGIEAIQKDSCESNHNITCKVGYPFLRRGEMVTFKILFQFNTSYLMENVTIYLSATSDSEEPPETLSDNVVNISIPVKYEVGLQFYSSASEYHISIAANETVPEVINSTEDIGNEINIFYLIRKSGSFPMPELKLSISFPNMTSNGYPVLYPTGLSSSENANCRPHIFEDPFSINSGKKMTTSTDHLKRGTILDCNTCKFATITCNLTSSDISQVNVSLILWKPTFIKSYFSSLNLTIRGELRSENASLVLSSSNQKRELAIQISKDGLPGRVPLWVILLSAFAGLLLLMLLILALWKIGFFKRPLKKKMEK
T5 sequence (P05556 21-798): as the sequence (P05556 21-798) above
Method: as §1, §2

T1 sequence (Q13797 30-1035): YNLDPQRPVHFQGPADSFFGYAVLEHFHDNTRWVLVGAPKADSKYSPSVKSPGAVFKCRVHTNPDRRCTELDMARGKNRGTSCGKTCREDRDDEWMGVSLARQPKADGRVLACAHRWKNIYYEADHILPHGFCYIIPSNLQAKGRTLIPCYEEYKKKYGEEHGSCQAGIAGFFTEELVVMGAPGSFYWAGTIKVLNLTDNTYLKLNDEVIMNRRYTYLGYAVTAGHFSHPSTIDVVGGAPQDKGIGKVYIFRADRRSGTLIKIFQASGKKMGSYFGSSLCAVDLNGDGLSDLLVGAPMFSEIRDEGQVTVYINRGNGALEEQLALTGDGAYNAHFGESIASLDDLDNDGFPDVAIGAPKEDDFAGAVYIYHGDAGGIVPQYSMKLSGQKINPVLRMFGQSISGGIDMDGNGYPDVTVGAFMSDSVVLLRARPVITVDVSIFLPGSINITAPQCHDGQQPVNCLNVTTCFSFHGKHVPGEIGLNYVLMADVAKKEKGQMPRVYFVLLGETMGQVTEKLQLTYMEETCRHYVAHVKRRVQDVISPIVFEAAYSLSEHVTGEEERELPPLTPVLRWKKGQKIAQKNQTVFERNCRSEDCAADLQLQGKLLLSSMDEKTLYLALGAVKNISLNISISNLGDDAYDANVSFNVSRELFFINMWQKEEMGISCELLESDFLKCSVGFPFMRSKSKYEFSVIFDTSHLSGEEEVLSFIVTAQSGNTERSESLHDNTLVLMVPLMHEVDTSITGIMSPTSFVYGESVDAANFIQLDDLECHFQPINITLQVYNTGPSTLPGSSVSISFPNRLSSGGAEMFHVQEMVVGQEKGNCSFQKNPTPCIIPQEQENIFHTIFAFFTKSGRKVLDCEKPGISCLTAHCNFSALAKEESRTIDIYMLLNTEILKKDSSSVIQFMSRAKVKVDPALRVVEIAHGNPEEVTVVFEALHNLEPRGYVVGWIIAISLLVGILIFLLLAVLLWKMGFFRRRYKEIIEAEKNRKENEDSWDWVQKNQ
T1 sequence (P05556 21-798): as the sequence (P05556 21-798) above

With `CSCC[C@H](NC(=O)[C@@H](NC(=O)CNC(=O)[C@@H](N)CCCCN)[C@@H](C)O)C(=O)N[C@@H](CC(C)C)C(=O)N[C@@H](CC(=O)O)C(=O)NCC(=O)N[C@@H](CC(C)C)C(N)=O` [sequence 6, KG39TMLDG44L] (H-KGTMLDGL-NH2; N-terminus and C-terminus assumed) the IC50 (α9β1) was 1450 ± 125 µM, the IC50 [1] was 1550 ± 125 µM and the IC50 (α5β1-fibronectin) was over 10000 µM. It also gave an IC50 (α2β1-collagen I) of over 10000 µM, a half-life [2] of 7 min and an IC50 (α1β1-collagen IV) of over 10000 µM.

— publication PMC8717366, “Synthesis and Pharmacological Characterization of Visabron, a Backbone Cyclic Peptide Dual Antagonist of α4β1 (VLA-4)/α9β1 Integrin for Therapy of Multiple Sclerosis” (JACS Au, 2021)
